Like-named read-outs stand apart in the source and are kept apart here.
Key:
Type in all cases: cell-based
UACC-62 = assay: NCI60 five-dose screen; details: Homo sapiens, UACC-62, Melanoma, read-out: GI50
SK-OV-3 = assay: NCI60 one-dose screen; details: Homo sapiens; SK-OV-3, 10 μM, one-dose; read-out: Growth percent
A549/ATCC = assay: NCI60 five-dose screen; details: Homo sapiens, A549/ATCC, Non-small Cell Lung Cancer, read-out: GI50
OVCAR-5 = assay: NCI60 five-dose screen; details: Homo sapiens, OVCAR-5, Ovarian Cancer, read-out: GI50
HS 578T = assay: NCI60 one-dose screen; details: Homo sapiens; HS 578T, 10 μM, one-dose; read-out: Growth percent
DU-145 = assay: NCI60 one-dose screen; details: Homo sapiens; DU-145, 10 μM, one-dose; read-out: Growth percent
TK-10 [1] = assay: NCI60 five-dose screen; details: Homo sapiens, TK-10, Renal Cancer, read-out: GI50
M14 [2] = assay: NCI60 five-dose screen; details: Homo sapiens, M14, Melanoma, read-out: GI50
HCT-116 = assay: NCI60 five-dose screen; details: Homo sapiens, HCT-116, Colon Cancer, read-out: GI50
MDA-MB-468 [3] = assay: NCI60 five-dose screen; details: Homo sapiens, read-out: GI50
MDA-MB-435 = assay: NCI60 one-dose screen; details: Homo sapiens; MDA-MB-435, 10 μM, one-dose; read-out: Growth percent
ACHN [4] = assay: NCI60 one-dose screen; details: Homo sapiens, 10 μM, one-dose, read-out: Growth percent
HOP-92 = assay: NCI60 five-dose screen; details: Homo sapiens, HOP-92, Non-small Cell Lung Cancer, read-out: GI50
SN12C = assay: NCI60 one-dose screen; details: Homo sapiens, 10 μM, one-dose, read-out: Growth percent
NCI-H226 = assay: NCI60 five-dose screen; details: Homo sapiens, NCI-H226, Non-small Cell Lung Cancer, read-out: GI50
Prostate Cancer panel = assay: NCI60 five-dose screen, panel mean; details: Homo sapiens, mean over Prostate Cancer panel
SF-295 [5] = assay: NCI60 one-dose screen; details: Homo sapiens; SF-295, 10 μM, one-dose; read-out: Growth percent
786-0 = assay: NCI60 one-dose screen; details: Homo sapiens; 786-0, 10 μM, one-dose; read-out: Growth percent
MDA-MB-468 [6] = assay: NCI60 one-dose screen; details: Homo sapiens; MDA-MB-468, 10 μM, one-dose; read-out: Growth percent
NCI-H522 [7] = assay: NCI60 one-dose screen; details: Homo sapiens; NCI-H522, 10 μM, one-dose; read-out: Growth percent
U251 [8] = assay: NCI60 five-dose screen; details: Homo sapiens, read-out: GI50
CCRF-CEM = assay: NCI60 five-dose screen; details: Homo sapiens, Leukemia, read-out: GI50
ACHN [9] = assay: NCI60 five-dose screen; details: Homo sapiens, Renal Cancer, read-out: GI50
SF-295 [10] = assay: NCI60 five-dose screen; details: Homo sapiens, SF-295, CNS Cancer, read-out: GI50
NCI-H460 = assay: NCI60 one-dose screen; details: Homo sapiens; NCI-H460, 10 μM, one-dose; read-out: Growth percent
HCC-2998 = assay: NCI60 one-dose screen; details: Homo sapiens; HCC-2998, 10 μM, one-dose; read-out: Growth percent
NCI/ADR-RES = assay: NCI60 one-dose screen; details: Homo sapiens, 10 μM, one-dose, read-out: Growth percent
A498 [11] = assay: NCI60 one-dose screen; details: Homo sapiens; A498, 10 μM, one-dose; read-out: Growth percent
HT29 = assay: NCI60 five-dose screen; details: Homo sapiens, HT-29, HT29, Colon Cancer, read-out: GI50
IGROV1 [12] = assay: NCI60 five-dose screen; details: Homo sapiens, IGROV-1, IGROV1, Ovarian Cancer, read-out: GI50
Colon Cancer panel = assay: NCI60 five-dose screen, panel mean; details: Homo sapiens, mean over Colon Cancer panel
MCF7 = assay: NCI60 one-dose screen; details: Homo sapiens; MCF7, 10 μM, one-dose; read-out: Growth percent
M14 [13] = assay: NCI60 one-dose screen; details: Homo sapiens; M14, 10 μM, one-dose; read-out: Growth percent
TK-10 [14] = assay: NCI60 one-dose screen; details: Homo sapiens; TK-10, 10 μM, one-dose; read-out: Growth percent
T-47D = assay: NCI60 five-dose screen; details: Homo sapiens, T47D, T-47D, Breast Cancer, read-out: GI50
U251 [15] = assay: NCI60 one-dose screen; details: Homo sapiens, U-251; U251, 10 μM, one-dose; read-out: Growth percent
SK-MEL-5 = assay: NCI60 one-dose screen; details: Homo sapiens; SK-MEL-5, 10 μM, one-dose; read-out: Growth percent
OVCAR-8 = assay: NCI60 five-dose screen; details: Homo sapiens, OVCAR-8, Ovarian Cancer, read-out: GI50
SF-268 = assay: NCI60 one-dose screen; details: Homo sapiens; SF-268, 10 μM, one-dose; read-out: Growth percent
IGROV1 [16] = assay: NCI60 one-dose screen; details: Homo sapiens, IGROV-1; IGROV1, 10 μM, one-dose; read-out: Growth percent
A498 [17] = assay: NCI60 five-dose screen; details: Homo sapiens, A498, Renal Cancer, read-out: GI50
NCI-H522 [18] = assay: NCI60 five-dose screen; details: Homo sapiens, NCI-H522, Non-small Cell Lung Cancer, read-out: GI50
SNB-19 = assay: NCI60 five-dose screen; details: Homo sapiens, read-out: GI50
MOLT-4 = assay: NCI60 five-dose screen; details: Homo sapiens, MOLT-4, Leukemia, read-out: GI50
SR = assay: NCI60 one-dose screen; details: Homo sapiens, 10 μM, one-dose, read-out: Growth percent
MDA-MB-231/ATCC = assay: NCI60 one-dose screen; details: Homo sapiens; MDA-MB-231/ATCC, 10 μM, one-dose; read-out: Growth percent
EKVX = assay: NCI60 five-dose screen; details: Homo sapiens, Non-small Cell Lung Cancer, read-out: GI50

Compound: CC[C@]12C=CCN3CC[C@@]4(c5ccc(OC)cc5N(C)[C@H]4[C@@](O)(C(=O)OC)[C@@H]1OC(=O)CCC[P+](c1cc(C)c(OC)c(C)c1)(c1cc(C)c(OC)c(C)c1)c1cc(C)c(OC)c(C)c1)[C@@H]32 [9e]
- GI50 (UACC-62; five-dose): 160 nM
- activity at 10 µM (SK-OV-3): -97.7%
- GI50 (A549/ATCC; five-dose): 275 nM
- GI50 (OVCAR-5; five-dose): 339 nM
- activity at 10 µM (HS 578T): -98.2%
- activity at 10 µM (DU-145): -96.8%
- GI50 (TK-10 [1]; five-dose): 277 nM
- GI50 (M14 [2]; five-dose): 299 nM
- GI50 (HCT-116; five-dose): 223 nM
- GI50 (MDA-MB-468 [3]; MDA-MB-468, MDA-MB-468, Breast Cancer, five-dose): 27 nM
- GI50 (MDA-MB-468 [3]; MDA-MB-468, breast cancer MDA-MB-468, text): < 100 nM
- activity at 10 µM (MDA-MB-435): -98.2%
- activity at 10 µM (ACHN [4]): -96.5%
- GI50 (HOP-92; five-dose): 201 nM
- activity at 10 µM (SN12C): -96.7%
- GI50 (NCI-H226; five-dose): 230 nM
- GI50 (Prostate Cancer panel; read-out: Mean GI50): 250 nM
- activity at 10 µM (SF-295 [5]): -98.6%
- activity at 10 µM (786-0): -97.9%
- activity at 10 µM (MDA-MB-468 [6]): -99.4%
- activity at 10 µM (NCI-H522 [7]): -98.4%
- GI50 (U251 [8]; U-251, CNS cancer U251, text): < 100 nM
- GI50 (U251 [8]; U-251, U251, CNS Cancer, five-dose): 54 nM
- GI50 (CCRF-CEM; five-dose): 114 nM
- GI50 (ACHN [9]; five-dose): 319 nM
- GI50 (SF-295 [10]; five-dose): 213 nM
- activity at 10 µM (NCI-H460): -89.5%
- activity at 10 µM (HCC-2998): -97.9%
- activity at 10 µM (NCI/ADR-RES): -87.2%
- activity at 10 µM (A498 [11]): -98.9%
- GI50 (HT29; five-dose): 151 nM
- GI50 (IGROV1 [12]; five-dose): 193 nM
- GI50 (Colon Cancer panel; read-out: Mean GI50): 240 nM
- activity at 10 µM (MCF7): -94.5%
- activity at 10 µM (M14 [13]): -97.3%
- activity at 10 µM (TK-10 [14]): -99.3%
- GI50 (T-47D; five-dose): 105 nM
- activity at 10 µM (U251 [15]): -96.5%
- activity at 10 µM (SK-MEL-5): -97.5%
- GI50 (OVCAR-8; five-dose): 300 nM
- activity at 10 µM (SF-268): -97.6%
- activity at 10 µM (IGROV1 [16]): -99%
- GI50 (A498 [17]; five-dose): 314 nM
- GI50 (NCI-H522 [18]; five-dose): 198 nM
- GI50 (SNB-19; SNB-19, CNS cancer SNB-19, text): < 100 nM
- GI50 (SNB-19; SNB-19, SNB-19, CNS Cancer, five-dose): 59 nM
- GI50 (MOLT-4; five-dose): 164 nM

Compound: CCC12C=CCN3CCC4(c5ccc(OC)cc5N(C)C4C(O)(C(=O)OC)C1OC(=O)c1ccc(C[P+](c4ccccc4)(c4ccccc4)c4ccccc4)cc1)C32 (stereo not drawn) [compound 12]
- GI50 (UACC-62): 1030 nM
- activity at 10 µM (SK-OV-3): -13.2%
- GI50 (A549/ATCC): 2090 nM
- activity at 10 µM (SR): -58.3%
- GI50 (OVCAR-5): 1990 nM
- activity at 10 µM (HS 578T): -36.6%
- activity at 10 µM (MDA-MB-231/ATCC): -91.5%
- activity at 10 µM (DU-145): 16.9%
- GI50 (TK-10 [1]): 2840 nM
- GI50 (M14 [2]): 1350 nM
- GI50 (HCT-116): 1590 nM
- GI50 (MDA-MB-468 [3]; MDA-MB-468, MDA-MB-468, Breast Cancer): 186 nM
- activity at 10 µM (MDA-MB-435): -88.8%
- activity at 10 µM (ACHN [4]): 73.7%
- GI50 (HOP-92): 404 nM
- activity at 10 µM (SN12C): -46.5%
- GI50 (NCI-H226): 1540 nM
- GI50 (Prostate Cancer panel; read-out: GI50 Mean): 1130 nM
- activity at 10 µM (SF-295 [5]): 5.9%
- activity at 10 µM (786-0): -47.8%
- activity at 10 µM (MDA-MB-468 [6]): -49.2%
- activity at 10 µM (NCI-H522 [7]): -17.4%
- GI50 (U251 [8]; U-251, U251, CNS Cancer): 644 nM
- GI50 (CCRF-CEM): 1300 nM
- GI50 (ACHN [9]): 18500 nM
- GI50 (SF-295 [10]): 2920 nM
- activity at 10 µM (NCI-H460): -62.8%
- activity at 10 µM (HCC-2998): -74.6%
- activity at 10 µM (A498 [11]): 70.2%
- GI50 (EKVX): 2030 nM
- GI50 (HT29): 541 nM
- GI50 (IGROV1 [12]): 885 nM
- GI50 (Colon Cancer panel; read-out: GI50 Mean): 4690 nM
- activity at 10 µM (MCF7): -52.8%
- activity at 10 µM (M14 [13]): -73.9%
- activity at 10 µM (TK-10 [14]): 21.4%
- GI50 (T-47D): 525 nM
- activity at 10 µM (U251 [15]): -72.6%
- activity at 10 µM (SK-MEL-5): -98.5%
- GI50 (OVCAR-8): 3180 nM
- activity at 10 µM (SF-268): -26.1%
- activity at 10 µM (IGROV1 [16]): -69.6%
- GI50 (A498 [17]): 16400 nM
- GI50 (NCI-H522 [18]): 491 nM
- GI50 (SNB-19; SNB-19, SNB-19, CNS Cancer): 725 nM
- GI50 (MOLT-4): 1470 nM
